The values below are quoted from earlier work in US8278291B1, “Treatment of wrinkles and strias with 4-hydroxyandrostenedione or a derivative thereof” (Curadis GmbH, priority 1999, dated 2012).

One data set deals with sebaceous gland. The following applies: topical, male fuzzy rat, Ye 1997.
The conditions of data set [1]: applied to the head of monkeys over 27 weeks, versus untreated individuals, Rittmaster 1987.
In a further data set the test system is 5-alpha-reductase. The conditions noted are these: described in the literature, higher concentrations.
Another data set addresses T1, aromatase (Homo sapiens, UniProt P11511).
T1 sequence (P11511 1-503): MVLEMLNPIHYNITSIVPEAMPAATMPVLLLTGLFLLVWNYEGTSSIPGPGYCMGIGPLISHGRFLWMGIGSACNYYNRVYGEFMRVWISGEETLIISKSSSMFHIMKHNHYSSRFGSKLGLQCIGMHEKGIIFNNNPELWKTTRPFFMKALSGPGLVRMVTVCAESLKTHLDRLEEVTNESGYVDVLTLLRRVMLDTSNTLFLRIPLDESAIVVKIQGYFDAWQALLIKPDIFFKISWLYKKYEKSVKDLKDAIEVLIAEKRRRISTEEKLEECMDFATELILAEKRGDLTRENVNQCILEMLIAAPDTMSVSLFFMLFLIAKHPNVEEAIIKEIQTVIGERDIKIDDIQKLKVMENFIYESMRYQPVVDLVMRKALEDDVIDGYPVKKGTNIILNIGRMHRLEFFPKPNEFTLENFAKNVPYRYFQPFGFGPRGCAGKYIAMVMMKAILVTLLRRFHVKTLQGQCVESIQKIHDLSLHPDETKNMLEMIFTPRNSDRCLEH
The following applies: described in the literature.

Regarding `CC(C)(C)NC(=O)[C@H]1CC[C@H]2[C@@H]3CC[C@H]4NC(=O)C=C[C@]4(C)[C@H]3CC[C@]12C` [Finasterid, N-tert-butyl-3-oxo-4-aza-5α-androst-1-ene-17-β-carboxamide], in the data set with sebaceous gland, the “effect in the sebaceous gland model compared with MK 386” value was “little more effective than MK 386” and the “effect in the sebaceous gland model compared with RU58841” value is reported as “much lower effects”. For `CC(C)CCC[C@@H](C)[C@H]1CC[C@H]2[C@@H]3[C@@H](C)C[C@H]4N(C)C(=O)CC[C@]4(C)[C@H]3CC[C@]12C` [MK 386, 4,7-beta-dimethyl-4-azacholestane-3-one], the “effect in the sebaceous gland model compared with RU58841” value in the data set with sebaceous gland was “much lower effects”. With `CCN(CC)C(=O)[C@H]1CC[C@H]2[C@@H]3CC[C@H]4N(C)C(=O)CC[C@]4(C)[C@H]3CC[C@]12C` [Example 4-MA, 17-beta-N,N-diethylcarbamoyl-4-methyl-4-aza-5-alpha-androstan-3-one], the signs of boldness result in data set [1] is recorded as “did not have any signs of a boldness”. As for `C[C@]12CCC(=O)C(O)=C1CC[C@@H]1[C@@H]2CC[C@]2(C)C(=O)CC[C@@H]12` [4-hydroxyandrostendione, 4-hydroxyandrost-4-ene-3,17-dione], in the data set with 5-alpha-reductase, the “concentration that can also inhibit 5-alpha-reductase” value is 3 micro mole/L. Further, the “critical concentration for aromatase” value on aromatase is reported as “about 3 nano mole/L”.
